Measurements: US20060089335A1, “Compositions and methods for enhancing cognitive function and synaptic plasticity” (priority 2003, published 2006)

Tested on: NMDAR
Test: voltage-dependence of NMDAR Mg^2+ block, NMDA currents evoked by glutamate iontophoresis
Type: cell-based, rat
Description: Analysis of voltage-dependence of NMDAR Mg^2+ block. For studying the voltage-dependence of NMDAR Mg^2+ block, NMDA currents were evoked by local application of glutamate using the high-speed iontophoresis technique (Murnick et al., 2002). The current traces for each cell were normalized to their value at +40 mV membrane potential. The voltage dependency of NMDA currents was modeled using the Woodhull function (Woodhull, 1973). The NMDA channel conductance in the presence and absence of Mg^2+ was related according to the relationship: [formula] • where KMg is the voltage-independent affinity of Mg^2+ for the channel (0 mV membrane potential), δ is the electrical distance of the Mg^2+ binding site in the membrane field, E is membrane potential, and z is the valence of the blocking ion. RT/F was 25.4 mV (21° C.).
Although the biophysics of Mg^2+ block have been studied extensively (Mayer et al., 1984; Nowak et al., 1984; Jahr and Stevens, 1990), we wished to determine precisely the behavior of the Mg^2+ block at near-physiologic concentrations. […] We evoked NMDA currents by iontophoretic application of glutamate to a putative single bouton identified by FM 1-43 labeling and recorded under whole cell patch clamp in the presence of the AMPAR blocker, NBQX (10 μM). […] (Renger et al., 2001).

Compound: [Mg+2] [Mg^++]
- effect on NMDA current: had no effect
- reduction (attenuation) of NMDA current: ~60%
- reduction of EPSCNMDA amplitude: 50%
- size of outward EPSCNMDA: remained relatively unchanged
